Test results published in US20060135569A1, “Use of benzisoselenazolone compounds against ischemic myocardial damage” (priority 2002, published 2006).
Marks after values point to notes of the source that are not given here.

How the values were obtained:
Na^+/Ca^2+ exchanger = molecular target: T1, Na^+/Ca^2+ exchanger (Cavia porcellus, UniProt P48766); assay: Na^+/Ca^2+ exchange current (INa—Ca), whole-cell patch clamp, intracellular Na^+ overload cell model; assay type: cell-based, guinea pig
T1 construct: endogenous in cells; host or cells: freshly isolated guinea pig ventricular myocytes
Source text: 1. Establishment of Assaying Method for Biphasical Current Detection in Na^+/Ca^2+ Exchange System
Since the reverse mode of Na^+/Ca^2+ exchange process is one of the main mechanisms involving in ischemia/reperfusion insult, it is of great importance to establish cell model represented reverse mode Na^+/Ca^2+ exchange process for the development of drugs against ischemic injury. Therefore, we successfully established cell model of reverse mode Na^+/Ca^2+ exchange system by intracellular Na^+ dialysis technique, and recorded Na^+/Ca^2+ exchange currents by patch clamp experiment.
Internal solution contained certain concentration of NaCl was filled to the microcatheter, and ion exchange process between the cellular and internal solutions was conducted after whole cell currents were recorded by patch clamp. Na^+ contained in the internal solution was dialyzed into the cell; result in the high intracellular Na^+ concentration. After that, the cell was champed at a holding potential of −40 mV, then depolarized to +60 mV and followed by a conversely declining ramp stimuli at a speed of 80 mV·s^−1 and 2 s conditioning pulse, then repolarized to −100 mV with a frequency of 0.05 Hz. Under the stimulation protocol, current from outward to the inward direction was recorded by perfusing modified biphasical Tyrode solution (in which the outward and inward currents can be recorded simultaneously) with the addition of 1 mmol·L^−1 of BaCl2 and 2 mmol·L^−1 of CsCl to block K^+ channels, 1 μmol·L^−1 of verapamil to block L-type Ca^2+ channels, and 20 μmol·L^−1 of ouabain to block Na^+/K^+ ATPase, and 20 mmol·L^−1 of TEA to block potassium channels. The recorded inward currents were presented in a linear manner owing to the blockade of other time-dependent currents. With the increase of intracellular Na^+ level and prolongation of time, the reverse mode of Na^+/Ca^2+ exchange process was activated. […] Under such experimental conditioning, the maximum reverse mode current was recorded 3 min after cell crushed. No significant “run-down” was observed within the record period of 8 minutes. The inward and outward current were inhibited by 5 mmol·L^−1 of Ni^2+ treatment, and the experiment result in two current-voltage curves in the absence or presence of Ni^2+. The Ni^2+ sensitive current, also called electrophysiological Na^+/Ca^2+ exchange current (INa·Ca), was the minus result of two current-voltage curves. The reverse mode potential of INa—Ca was about −20 mV
Male guinea pigs weighting 250˜280 g provided by the Animal Center of the Chinese Academy of Medical Sciences were hammered and sacrificed. The chest was opened and the heart was removed quickly. Fatty tissue and pericardium were removed in a Ca^2+-free solution at 4° C., and heart was sequentially mounted on a Langendorff apparatus. First, the heart was perfused conversely via the aorta for 6 min with Ca^2+-free solution in order to wash out residual blood, then the heart expands and the color of it turns to pink. Then the heart was perfused with Ca^2+-free solution containing 0.1 mg/ml of pronase E, 0.5 mg/ml defatted bovine serum albumin (BSA) and 150 μM Ca^2+ for 2˜3 min, until the heart expanded and became soft. The atrium was removed, and the digested heart was minced with scissors, stirred in a beaker at 37° C. for 5˜10 min. The supernatant was diluted with Ca^2+-free solution containing 0.5 mg/ml BSA and 1.8 mM Ca^2+. The supernatant was placed at room temperature (20˜24° C.) for 1 hr and then subjected to the experiment. During the whole perfusion period, pressure was kept at 70 cmH2O and the temperature of solution was kept at 37° C. with continuously gassed with 95% O2 and 5% CO2.
Rod-shaped cells with clear striations and intact membrane were used. […]

[1] = system: isolated rat hearts subjected to ischemia-reperfusion (I/R); assay: Isolated heart subjected to ischemia/reperfusion injury (arrhythmia); conditions: for AAT: arrhythmic occurrence time, Time / VF (ventricular fibrillation) Incidence rate (%) / VPS (ventricular premature beats) Incidence rate (%) / VT (ventricular tachycardia) Incidence rate (%): 10^−6 M, isolated heart ischemia/reperfusion
Experimental: Based on the pre-electrophysiological cell model screening, we have compared the inhibition ratios of the outward current by reverse-transportation of Na^+/Ca^2+ exchange, and further in vitro tests on isolated rat hearts subjected to ischemia-reperfusion (I/R) were conducted. Prolongation of ventricular arrhythmic, incidence rate of ventricular extrasystole, ventricular tachycardia/ventricular fibrillation (VT/VF) were recorded to evaluate the protective actions of drugs on myocardial injury.
On the basis of above screening results obtained from electrophysiological studies, and the result from comparative study on the research of the inhibitory effect of compounds on reverse mode Na^+/Ca^2+ exchange process, 7 effective compounds were subjected to in vitro study. Among which, IMM-313, IMM-004 and IMM-132 have structures containing chlorine; IMM-127, IMM-128 and IMM-129 have structures containing fluorine; and IMM-065 has a structure containing OH. The experiment performed in the isolated heart subjected to ischemia/reprefusion insult. Prolongation of ventricular arrhythmic, incidence of ventricular extrasystole, ventricular tachycardia/ventricular fibrillation (VT/VF) were recorded in order to evaluate the protective actions of drugs on myocardial injury.

[2] = system: arrhythmia caused by ischemia/reperfusion insults in anaesthetic rats; assay: Ischemia/reperfusion arrhythmia in anaesthetic rats, intravenous injection; assay type: in vivo, rat; conditions: 3 mg/Kg intravenous (femoral vein), rats
Source text: (1) Protective Effects of the Tested Compounds on Myocardial Insults in Rats after Intravenously Injection
Arrhythmic potency induced by myocardial insults was used to assess the potential protective effect of the compounds.

TA97; TA98; TA100; TA102 = assay: Ames (mutagenesis) test, overall result in 4 strains; assay type: cell-based; conditions: 0.5, 5, 50 and 500 μg/dish
Experimental: (§1) To assess the mutagenic effects of 5 compounds (IMM-004; IMM-065; IMM-127; IMM-128; IMM-313), the Ames test was performed in 4 strains (TA97; TA98; TA100; TA102). The experiment was conducted with compounds at 4 concentration levels (0.5, 5, 50 and 500 μg/dish). […]

TA97 = assay: Ames test, strain TA97; assay type: cell-based
Experimental: as §1

TA98 = assay: Ames test, strain TA98; assay type: cell-based
Experimental: as §1

TA100 = assay: Ames test, strain TA100; assay type: cell-based
Experimental: as §1

TA102 = assay: Ames test, strain TA102; assay type: cell-based
Experimental: as §1

[3] = system: acute myocardial ischemia in anesthetized dogs; assay: Acute myocardial ischemia and infarction in anesthetized dogs; assay type: in vivo, dog
Experimental: Dogs were divided into three groups: 1, vehicle control group, PEG 1 ml/kg, n=5; 2, dilthiazem group, 5 mg/kg, n=5; 3, IMM-004 group, 30 mg/kg, n=5. The tested drugs were prepared in distilled water at volume of 1 ml/kg. The tested items were administrated via duodenum by animals.

[4] = Example 1 table, myocardial cell
[5] = screening of 22 candidate compounds
[6] = N-BT staining, Dilthiazem 5 mg/kg, IMM-004 30 mg/kg, % according to b137

## C/C(=N\O)c1ccc(-n2[se]c3ccccc3c2=O)cc1 [IMM-065]
Na^+/Ca^2+ exchanger; [4]
  Inhibitory rate of inward INa—Ca (%): 43%
  Inhibitory rate of outward INa—Ca (%): 55%
Na^+/Ca^2+ exchanger; [5]
  Inhibitory rate of inward INa—Ca (%): 43%
  Inhibitory rate of outward INa—Ca (%): 55* %
[1]; 10^−6M, isolated heart
  protective effects on myocardial insults: significant protective effects
[1]
  AAT: arrhythmic occurrence time, Time: 13.09 ± 3.76 min
  VF (ventricular fibrillation) Incidence rate (%): 50%
  VPS (ventricular premature beats) Incidence rate (%): 30%
  VT (ventricular tachycardia) Incidence rate (%): 70%
[2]
  incidence and duration of VT, VF, VE / ventricular arrhythmic: no significant effect
TA97; TA98; TA100; TA102
  mutagenic effect (Ames test): No evidence for a mutagenic effect
TA97; 0.5 μg/dish
  TA97 +S9: 249.33 ± 35.83
  TA97 −S9: 62.67 ± 4.49
TA97; 5 μg/dish
  TA97 +S9: 76.00 ± 15.29
  TA97 −S9: 73.67 ± 6.64
TA97; 50 μg/dish
  TA97 +S9: 82.67 ± 12.92
  TA97 −S9: 69.67 ± 3.77
TA97; 500 μg/dish
  TA97 +S9: 0
  TA97 −S9: 59.67 ± 0.94
TA98; 0.5 μg/dish
  TA98 +S9: 56.50 ± 4.50
  TA98 −S9: 52.00 ± 3.74
TA98; 5 μg/dish
  TA98 +S9: 61.67 ± 11.15
  TA98 −S9: 42.00 ± 10.80
TA98; 50 μg/dish
  TA98 +S9: 42.00 ± 5.72
  TA98 −S9: 45.33 ± 5.44
TA98; 500 μg/dish
  TA98 +S9: 168.00 ± 32.00
  TA98 −S9: 54.00 ± 12.83
TA100; 0.5 μg/dish
  TA100 +S9: 176.67 ± 24.57
  TA100 −S9: 153.67 ± 13.47
TA100; 5 μg/dish
  TA100 +S9: 167.00 ± 58.86
  TA100 −S9: 60.33 ± 19.91
TA100; 50 μg/dish
  TA100 +S9: 180.33 ± 29.83
  TA100 −S9: 108.67 ± 6.79
TA100; 500 μg/dish
  TA100 +S9: 0
  TA100 −S9: 62.33 ± 20.53
TA102; 0.5 μg/dish
  TA102 +S9: 270.00 ± 10.00
  TA102 −S9: 244.00 ± 12.33
TA102; 5 μg/dish
  TA102 +S9: 308.00 ± 31.16
  TA102 −S9: 246.00 ± 24.00
TA102; 50 μg/dish
  TA102 +S9: 339.33 ± 48.99
  TA102 −S9: 217.33 ± 15.43
TA102; 500 μg/dish
  TA102 +S9: 287.33 ± 41.89
  TA102 −S9: 215.00 ± 75.59

## COc1ccc([C@@H]2Sc3ccccc3N(CCN(C)C)C(=O)[C@@H]2OC(C)=O)cc1 [Dilthiazem, reference compound]
[3]; 5 mg/kg
  blood oxygen concentration: Significant increase
  myocardial oxygen consumption: decrease
[3]; 5 mg/kg via duodenum, from 90 min, lasted for 180 min after administration
  severity of myocardial ischemia (Σ-ST), in words: reduced
[3]; [6]
  Infarction area/ heart area: 1.54 ± 0.40
  Infarction area/ventricle area: 3.54 ± 3.74
[3]; N-BT staining, Dilthiazem 5 mg/kg, IMM-004 30 mg/kg, X ± SD
  Infarction area mm^2: 186.50 ± 21.2*** mm^2
[3]; N-BT staining, IMM-004 30 mg/kg, dilthiazem 5 mg/kg
  Myocardial infarction size, in words: significantly reduced
[3]; after treatment, dilthiazem 5 mg/kg, IMM-004 30 mg/kg
  Coronary flows, in words: significantly increased

## O=c1c2cc(F)ccc2[se]n1-c1cccnc1 [IMM-128, 5-fluoro-2-(3-pyridyl)-1,2-benz-isoselenazol-3(2H)-one]
Na^+/Ca^2+ exchanger; [4]
  Inhibitory rate of inward INa—Ca (%): 42%
  Inhibitory rate of outward INa—Ca (%): 44%
Na^+/Ca^2+ exchanger; [5]
  Inhibitory rate of inward INa—Ca (%): 42%
  Inhibitory rate of outward INa—Ca (%): 44* %
[1]
  AAT: arrhythmic occurrence time, Time: 22.10 ± 3.49 min
  VF (ventricular fibrillation) Incidence rate (%): 50%
  VPS (ventricular premature beats) Incidence rate (%): 25%
  VT (ventricular tachycardia) Incidence rate (%): 50%
TA97; TA98; TA100; TA102
  mutagenic effect (Ames test): No evidence for a mutagenic effect
TA97; 0.5 μg/dish
  TA97 +S9: 70.00 ± 11.86
  TA97 −S9: 59.33 ± 10.27
TA97; 5 μg/dish
  TA97 +S9: 63.00 ± 31.00
  TA97 −S9: 52.67 ± 3.21
TA97; 50 μg/dish
  TA97 +S9: 60.33 ± 17.59
  TA97 −S9: 59.00 ± 3.56
TA97; 500 μg/dish
  TA97 +S9: 78.50 ± 21.50
  TA97 −S9: 65.33 ± 2.35
TA98; 0.5 μg/dish
  TA98 +S9: 40.67 ± 16.05
  TA98 −S9: 64.00 ± 6.48
TA98; 5 μg/dish
  TA98 +S9: 46.00 ± 3.00
  TA98 −S9: 69.33 ± 12.81
TA98; 50 μg/dish
  TA98 +S9: 56.00 ± 9.63
  TA98 −S9: 71.33 ± 12.26
TA98; 500 μg/dish
  TA98 +S9: 31.33 ± 6.24
  TA98 −S9: 83.67 ± 5.79
TA100; 0.5 μg/dish
  TA100 +S9: 167.33 ± 17.98
  TA100 −S9: 127.33 ± 20.04
TA100; 5 μg/dish
  TA100 +S9: 149.67 ± 19.60
  TA100 −S9: 116.50 ± 30.50
TA100; 50 μg/dish
  TA100 +S9: 141.33 ± 16.36
  TA100 −S9: 135.00 ± 14.99
TA100; 500 μg/dish
  TA100 +S9: 107.67 ± 13.47
  TA100 −S9: 100.00 ± 33.67
TA102; 0.5 μg/dish
  TA102 +S9: 277.33 ± 15.17
  TA102 −S9: 214.67 ± 8.22
TA102; 5 μg/dish
  TA102 +S9: 234.67 ± 80.37
  TA102 −S9: 270.67 ± 12.04
TA102; 50 μg/dish
  TA102 +S9: 333.00 ± 60.83
  TA102 −S9: 210.00 ± 31.54
TA102; 500 μg/dish
  TA102 +S9: 274.00 ± 37.98
  TA102 −S9: 296.00 ± 22.86
